# Patent US20050064014A1, “Use of cystathionine” (priority 2001, published 2005)
# Like-named read-outs stand apart in the source and are kept apart here.
# What was measured:
# [1] = Stability under THA sterilization conditions (140° C.-15″), 43 mM in SONDALIS; type: physicochemical; conditions: THA sterilization 140° C.-15″
# Experimental: Stability Under THA Sterilization Conditions (140° C.-15''), at High Concentration (43 mM) in […] […] The THA conditions therefore conventionally induce much less degradation than those described above, but slightly more than industrial UHT conditions. The high concentration (43 mM) was chosen because it falls within the average of that which may be recommended in enteral nutrition products. Under these conditions, the losses of cysteine are lower than for the harsh sterilization conditions (121° C.-15') but remain much too high (27%) for use in a nutrition product.
# [2] = type: physicochemical; conditions: for L-cystathionine (3 mM) Evaluated loss / L-cysteine (3 mM) Evaluated loss / L-cysteine (3 mM) Free cysteine / L-cysteine (3 mM) Oxidized cysteine: 121° C. for 15 minutes in an autoclave
# Experimental: (§1) The stability of the cystathionine compared to that of cysteine was tested with deionized water and in various liquid enteral formulae (SONDALIS and REABILAN). REABILAN and SONDALIS (registered trademarks) are different enteral compositions comprising 35% of energy in the form of lipids, 50-52.5% in the form of carbohydrates, in particular of maltodextrins and starches, 12.5-15% in the form of peptides or proteins, and also comprising vitamins, mineral salts and other compounds such as taurine or L-camitine.
# Stability Under Harsh Sterilization Conditions (121° C.-15 min) at 3 mM Concentration
# Unlike cysteine, the cystathionine is found to be very stable.
# In the enteral formulae, and after heat treatment, the amount of available cysteine decreases very substantially, and the relative loss of cysteine increases when the amount added decreases.
# glutathione status = assay: Physiological effectiveness: diet supplementation in infected rats (sepsis), glutathione concentration; type: in vivo; conditions: standard protein diet supplemented with cystathionine, compared with cysteine positive control group
# Description: Groups of sick rats receiving differentiated diets are compared with regard to the glutathione concentration in various organs but especially in the liver. The liver is in fact the major organ for regulating glutathione synthesis in terms of the whole body. The compared groups received a standard protein diet supplemented either with an amino acid considered to be neutral with respect to glutathione (alanine) (control group), or with cysteine (positive control group), or with cystathionine (test group). A group of animals which are not sick is also realized (normal group).
# [3] = Maximum solubility in water; type: physicochemical; conditions: water at 25° C.; read-out: maximum level of solubility in water
# Experimental: (§2) The cystathionine was added at its maximum level of solubility in water at 25° C., i.e. 0.6 mg/mL of water. The mixture was treated at 121° C. for 15 minutes in an autoclave and was analyzed.
# [4] = Stability in water, autoclave 121° C. for 15 minutes; type: physicochemical; conditions: after 121° C. for 15 minutes
# Experimental: as §1, §2
# In water, cystathionine is very stable, even after treatment at 121° C. for 15 minutes, since the degree of recovery is 100%, and the cysteine is slightly oxidized to cystine (6%).
# [5] = tested on: hepatic glutathione status; conditions: rats with sepsis, diet supplemented with cysteine; cited from earlier work
SMILES,L-cystathionine (43 mM) Evaluated loss [1] [%],L-cystathionine (43 mM) Non-degraded form [1] [%],L-cystathionine (43 mM) Evaluated loss ([1]; listed as cystathionine),stability in the enteral formulae before heat treatment [2],L-cystathionine (3 mM) Evaluated loss ([2]; REABILAN) [%],L-cystathionine (3 mM) Evaluated loss ([2]; SONDALIS) [%],glutathione concentration (glutathione status),solubility [3] [µg/mL],L-cysteine (43 mM) Evaluated loss [1] [%],L-cysteine (43 mM) Free cysteine [1] [%],L-cysteine (43 mM) Oxidized cysteine [1] [%],L-cysteine (43 mM) Evaluated loss ([1]; listed as cysteine) [%],L-cysteine (3 mM) Evaluated loss ([2]; REABILAN) [%],L-cysteine (3 mM) Free cysteine ([2]; REABILAN) [%],L-cysteine (3 mM) Oxidized cysteine ([2]; REABILAN) [%],L-cysteine (3 mM) Evaluated loss ([2]; SONDALIS) [%],L-cysteine (3 mM) Free cysteine ([2]; SONDALIS) [%],L-cysteine (3 mM) Oxidized cysteine ([2]; SONDALIS) [%],oxidized to cystine [4] [%],hepatic glutathione status [5]
"N[C@@H](CCSC[C@H](N)C(=O)O)C(=O)O [L-cystathionine, cystathionine]",4,96,at the limit of reproducibility of the assaying method,very stable,0,17,level equivalent to that of the positive control group,600,,,,,,,,,,,,
"N[C@@H](CS)C(=O)O [L-cysteine, cysteine]",,,,relatively unstable,,,,,27,66,7,27,83,12,5,86,11,3,6,re-establish hepatic glutathione status at the level of a normal animal
